The values below are quoted from earlier work in patent US20250375478A1, “THERAPEUTIC COMPOSITION, ASSEMBLY KIT AND METHOD FOR THE TREATMENT OF DRY EYE DISEASE AND PROMOTION OF OCULAR HEALTH” (PReye, LLC, priority 2025, published 2025).

Molecules are shown by their SMILES.

For this data set the following is noted: ferulic acid combined in solution with Vitamin C.

Turning to `COc1cc(/C=C/C(=O)O)ccc1O` [Ferulic acid], the “stabilization of Vitamin C” value was “up to 90%”.
